In ChEMBL document CHEMBL1201862, “PubChem BioAssay data set” (2004):
Active and inactive are the calls of the source.

Key:
[1] = biological target: T1, RNA-binding protein pos-1 (Caenorhabditis elegans, UniProt G5EF15); experiment: disruptors of C. elegans POS-1 RNA interaction – biochemical, fluorescence polarization, dose response (AID 1964);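 note: purified POS-1 fused to maltose binding protein made in E. coli; potency of compounds blocking POS-1 binding to fluorescent RNA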
T1 sequence (G5EF15 whole entry): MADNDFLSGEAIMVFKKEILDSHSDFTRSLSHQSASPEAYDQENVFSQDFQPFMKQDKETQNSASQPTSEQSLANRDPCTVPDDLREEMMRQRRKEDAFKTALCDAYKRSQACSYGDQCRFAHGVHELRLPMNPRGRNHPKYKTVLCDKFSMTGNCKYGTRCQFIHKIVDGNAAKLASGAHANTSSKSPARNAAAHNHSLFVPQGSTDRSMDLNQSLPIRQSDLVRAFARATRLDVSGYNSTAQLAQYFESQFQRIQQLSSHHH

[2] = biological target: T2, Zinc finger protein mex-5 (Caenorhabditis elegans, UniProt Q9XUB2); experiment: potency of MEX-5 RNA-binding blockers – biochemical, C. elegans, fluorescence polarization, dose response (AID 1960)
T2 sequence (Q9XUB2 whole entry): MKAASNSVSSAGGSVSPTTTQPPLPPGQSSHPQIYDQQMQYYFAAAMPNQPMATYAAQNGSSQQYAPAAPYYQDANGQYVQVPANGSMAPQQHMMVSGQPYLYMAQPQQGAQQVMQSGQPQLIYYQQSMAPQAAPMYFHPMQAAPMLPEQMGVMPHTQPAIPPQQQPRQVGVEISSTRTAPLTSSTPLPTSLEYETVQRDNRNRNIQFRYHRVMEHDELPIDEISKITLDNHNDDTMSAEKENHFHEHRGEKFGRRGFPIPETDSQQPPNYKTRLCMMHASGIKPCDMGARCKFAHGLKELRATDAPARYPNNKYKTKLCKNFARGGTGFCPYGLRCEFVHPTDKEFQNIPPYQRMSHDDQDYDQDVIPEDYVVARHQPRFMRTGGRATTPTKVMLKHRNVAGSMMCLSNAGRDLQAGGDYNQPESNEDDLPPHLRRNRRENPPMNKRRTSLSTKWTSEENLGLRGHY

[3] = biological target: FAD-linked sulfhydryl oxidase ALR (Homo sapiens, UniProt P55789); experiment: ALR-catalysed DTT oxidation blockers – biochemical, H2O2 detection, luminescence, cherry-pick, dose response (AID 493248)
[4] = biological target: Dual specificity tyrosine-phosphorylation-regulated kinase 1A (Rattus norvegicus, UniProt Q63470); format: biochemical, Homo sapiens
[5] = biological target: T3, Polyadenylate-binding protein 1 (Homo sapiens, UniProt P11940); experiment: MLLE binding blockers, Cy5 peptide tracer – biochemical, fluorescence polarization, Cy5-PAM2 peptide, secondary, miRNA deadenylation inhibitor project, dose response (AID 602260); format: functional; details: read-out: IC50_Mean
[6] = biological target: T4, Corticotropin-releasing factor receptor 2/Corticotropin-releasing factor-binding protein (Homo sapiens, UniProt P24387+Q13324); experiment: Dose Response confirmation of uHTS hits for small molecule antagonists of the CRF-binding protein and CRF-R2 receptor complex.; format: functional; details: read-out: IC50_Mean
T4 sequence (Q13324 whole entry): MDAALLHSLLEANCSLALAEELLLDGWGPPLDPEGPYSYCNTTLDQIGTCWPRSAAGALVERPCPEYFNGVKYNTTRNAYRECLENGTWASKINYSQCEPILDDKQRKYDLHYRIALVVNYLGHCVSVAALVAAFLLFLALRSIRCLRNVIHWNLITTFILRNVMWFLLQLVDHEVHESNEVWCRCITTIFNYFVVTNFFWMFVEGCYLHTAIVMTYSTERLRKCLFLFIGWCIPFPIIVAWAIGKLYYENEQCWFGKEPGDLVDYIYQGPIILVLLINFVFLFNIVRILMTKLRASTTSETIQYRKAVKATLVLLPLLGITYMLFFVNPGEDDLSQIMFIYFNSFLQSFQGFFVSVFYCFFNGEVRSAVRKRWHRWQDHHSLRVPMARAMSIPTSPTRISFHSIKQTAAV
T4 sequence (P24387 whole entry): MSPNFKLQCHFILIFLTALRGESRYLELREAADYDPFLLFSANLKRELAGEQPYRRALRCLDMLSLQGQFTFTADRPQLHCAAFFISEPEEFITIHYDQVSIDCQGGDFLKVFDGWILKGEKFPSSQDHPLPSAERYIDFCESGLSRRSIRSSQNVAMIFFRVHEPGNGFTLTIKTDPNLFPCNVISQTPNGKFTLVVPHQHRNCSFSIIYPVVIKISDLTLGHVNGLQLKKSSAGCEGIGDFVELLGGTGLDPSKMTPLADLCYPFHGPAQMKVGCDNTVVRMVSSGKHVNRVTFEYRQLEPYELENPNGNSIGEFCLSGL

[7] = biological target: T3, Polyadenylate-binding protein 1; experiment: MLLE domain peptide-binding blockers, IC50 – biochemical, fluorescence polarization, FITC-PAM2 peptide, dose response (AID 602259); format: functional; details: read-out: IC50_Mean
[8] = biological target: T4, Corticotropin-releasing factor receptor 2/Corticotropin-releasing factor-binding protein; experiment: activators of CRF receptor 2 with binding protein – uHTS hits, confirmation (AID 602473); format: functional; details: read-out: EC50_Mean
[9] = biological target: T5, Rac GTPase-activating protein 1 (Homo sapiens, UniProt Q9H0H5); experiment: blockers of MgcRacGAP-driven Rac1 GTP hydrolysis – biochemical, ADP Hunter fluorescence, primary and confirmatory, confirmation (AID 624330); format: functional
T5 sequence (Q9H0H5 whole entry): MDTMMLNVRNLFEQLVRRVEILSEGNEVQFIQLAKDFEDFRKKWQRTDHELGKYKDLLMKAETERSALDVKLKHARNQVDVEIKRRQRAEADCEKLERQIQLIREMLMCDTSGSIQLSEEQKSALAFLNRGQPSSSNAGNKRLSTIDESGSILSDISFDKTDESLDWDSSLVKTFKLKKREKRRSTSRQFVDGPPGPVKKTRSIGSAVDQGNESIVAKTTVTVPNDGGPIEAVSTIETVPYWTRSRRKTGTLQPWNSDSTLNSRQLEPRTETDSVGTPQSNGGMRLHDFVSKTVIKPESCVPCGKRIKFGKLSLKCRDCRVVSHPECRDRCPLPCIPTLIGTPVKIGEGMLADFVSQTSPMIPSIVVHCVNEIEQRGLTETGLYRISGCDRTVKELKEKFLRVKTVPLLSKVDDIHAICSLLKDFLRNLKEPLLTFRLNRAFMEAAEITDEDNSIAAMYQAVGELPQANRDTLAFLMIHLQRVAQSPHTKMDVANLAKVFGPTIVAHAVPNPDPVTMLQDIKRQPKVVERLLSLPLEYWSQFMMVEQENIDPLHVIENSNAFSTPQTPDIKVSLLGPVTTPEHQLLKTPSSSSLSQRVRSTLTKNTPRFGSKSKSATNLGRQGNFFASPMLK

Major prion protein = Major prion protein (Homo sapiens, UniProt P04156); format: functional, cell-based
Cytochrome P450 3A4 = Cytochrome P450 3A4 (Homo sapiens, UniProt P08684); details: Potency;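 note: confirmatory qHTS run detecting inhibitors and substrates of CYP3A4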
[10] = biological target: Voltage-gated inwardly rectifying potassium channel KCNH2 (Homo sapiens, UniProt Q12809); details: Potency;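 note: confirmatory quantitative high-throughput screen measuring inhibition of hERG channel activity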
INS1 = experiment: INS-1E mitochondrial potential rescue under cytokines – cell-based, JC-1 fluorescence ratio, dry powder, dose response (AID 488931); format: functional; details: Rattus norvegicus
[11] = alpha-synuclein stem-loop luciferase translation blockers – H4 neuroglioma cells, luminescence, confirmation (AID 1988); format: functional, cell-based
[12] = biological target: Luciferin 4-monooxygenase (Photuris pensylvanica, UniProt Q27757); experiment: inhibition of Cell Titer Glo luciferase signal – biochemical, luminescence, cherry-picks, counter-screen for HSF-1 reporter inhibitor project, dose response (AID 588847)
[13] = A549 cell cytotoxicity, dose response, cytotoxicity control, plate reader, cherry-pick, antagonist series (AID 743412); format: functional, cell-based
[14] = toxicity toward HepG2 liver cells – cell-based, plate reader, cherry-pick, antagonist series, cytotoxicity control, dose response (AID 743416); format: functional
[15] = blockers of bursicon-stimulated LGR2 cAMP reporter – cell-based, HEK293, CRE-luciferase reporter, cherry pick, set 2, dose response (AID 743343); format: functional;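 note: transfected cells were stimulated with diluted bursicon conditioned medium after compound addition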
[16] = blockade of melanocortin 4 receptor signaling – cell-based, plate reader, cherry pick, counter-screen for LGR2 antagonist project, dose response (AID 743444); format: functional;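 note: transfected HEK 293 cells stimulated with alpha-MSH peptide; potency of inhibitors of the alpha-MSH evoked signal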
[17] = viability loss in HEK293 cells – cell-based, plate reader, cherry-picked samples, cytotoxicity control, dose response (AID 743446); format: functional
[18] = biological target: Induced myeloid leukemia cell differentiation protein Mcl-1 (Homo sapiens, UniProt Q07820); format: functional
HeLa = experiment: viability loss in HeLa cells – cell-based, 24 h, cherry-picked samples, cytotoxicity control, dose response (AID 504726); format: functional; details: Homo sapiens;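 note: potency for cytotoxicity as loss of luminescence signal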
ORF 73 = ORF 73 (Human herpesvirus 8, UniProt O40947); experiment: KSHV LANA DNA-binding disruption – biochemical, fluorescence polarization, cherry-picked samples, dose response (AID 504725); set-up: species or system Human gammaherpesvirus 8;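 note: fluorescence polarization of a labeled DNA duplex reporting LANA DNA binding; potency is for inhibitors that block LANA binding to the DNA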
[19] = biological target: Beta-adrenergic receptor kinase 1 (Homo sapiens, UniProt P25098); experiment: aptamer displacement from bead-bound GRK2 – biochemical, cherry pick 1, bead flow cytometry, dose response (AID 504500)
Genome polyprotein = Genome polyprotein (dengue virus type 2, UniProt P29990); experiment: flavivirus cap methylation enzyme inhibition – biochemical, confirmation dose response, primary screen (AID 588689); format: functional
[20] = biological target: T6, Small ubiquitin-related modifier 1 (Homo sapiens, UniProt P63165); experiment: SUMO1 protein interaction blockers, potency – biochemical, fluorescence polarization, uHTS hits, dose response (AID 624382); format: functional; details: read-out: IC50_Mean
[21] = biological target: T6, Small ubiquitin-related modifier 1; experiment: SUMO1 protein-protein binding blockers, potency – biochemical, FRET, dose response (AID 624383); format: functional; details: read-out: IC50_Mean
[22] = biological target: Glutathione-S-transferase (Schistosoma japonicum, UniProt Q26513); experiment: GST-antibody interaction or FRET quenching – biochemical, TR-FRET, artefact control for Vif-APOBEC3G degradation inhibitor project, dose response (AID 1117362); format: functional
Beta-galactosidase = Beta-galactosidase (Escherichia coli, UniProt Q8VNN2); experiment: PubChem AID 485352; format: functional
[23] = biological target: Type-1 angiotensin II receptor (Homo sapiens, UniProt P30556); experiment: antagonism of angiotensin II type 1 receptor – cell-based, uHTS hits, selectivity assay for APJ receptor antagonist project, dose response (AID 463214); format: functional;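 note: antagonist potency against angiotensin II stimulated AT1 response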
HEK293 [24] = experiment: inhibition of NOD1-driven NF-kB reporter – cell-based, luminescence, uHTS, primary screen (AID 1578); format: functional; details: Homo sapiens
HEK293 [25] = experiment: cells; format: functional, cell-based; details: Homo sapiens
HEK293 [26] = experiment: cells; format: functional, cell-based; details: Homo sapiens; remark: listed apart in the source
[27] = biological target: Nucleotide-binding oligomerization domain-containing protein 2 (Homo sapiens, UniProt Q9HC29); experiment: inhibition of NOD2-driven NF-kB reporter – cell-based, luminescence, uHTS, HEK293 (AID 1566); format: functional
HEK293 [28] = experiment: NOD2 signaling inhibitors in MDP-stimulated cells, cell-based, uHTS, luminescence (AID 2001); format: functional; details: Homo sapiens
HEK293 [29] = experiment: cells; format: functional, cell-based; details: Homo sapiens; remark: listed apart in the source
H4 = experiment: Inhibitors of Prion Protein 5' UTR mRNA Measured in Cell-Based System Using Plate Reader - 2078-01_Inhibitor_Dose_DryPowder_Activity. [Related pubchem assays (depositor defined):AID488894]; format: functional; details: Homo sapiens

T3 sequence (P11940 whole entry): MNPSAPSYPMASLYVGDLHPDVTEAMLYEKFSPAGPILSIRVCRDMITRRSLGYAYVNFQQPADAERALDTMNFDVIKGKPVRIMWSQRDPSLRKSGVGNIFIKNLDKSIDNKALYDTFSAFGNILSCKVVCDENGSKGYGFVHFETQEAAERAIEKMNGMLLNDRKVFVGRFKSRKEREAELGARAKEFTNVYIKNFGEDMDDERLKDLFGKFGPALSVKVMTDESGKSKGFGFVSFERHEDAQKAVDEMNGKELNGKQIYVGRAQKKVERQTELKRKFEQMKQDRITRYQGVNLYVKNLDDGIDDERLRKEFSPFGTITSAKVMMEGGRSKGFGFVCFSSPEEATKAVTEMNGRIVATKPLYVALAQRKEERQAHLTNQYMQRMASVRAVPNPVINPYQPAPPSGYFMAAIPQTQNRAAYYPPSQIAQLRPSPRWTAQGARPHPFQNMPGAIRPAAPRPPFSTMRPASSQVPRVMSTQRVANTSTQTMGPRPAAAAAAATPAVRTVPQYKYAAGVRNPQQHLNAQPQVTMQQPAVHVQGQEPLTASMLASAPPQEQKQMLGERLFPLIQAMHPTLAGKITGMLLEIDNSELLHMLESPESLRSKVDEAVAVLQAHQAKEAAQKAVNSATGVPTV
T6 sequence (P63165 whole entry): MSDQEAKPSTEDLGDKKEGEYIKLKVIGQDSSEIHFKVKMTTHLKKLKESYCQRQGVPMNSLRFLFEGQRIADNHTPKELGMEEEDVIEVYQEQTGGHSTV
Nucleotide-binding oligomerization domain-containing protein 2, sequence (Q9HC29 whole entry, the tested form may be a part): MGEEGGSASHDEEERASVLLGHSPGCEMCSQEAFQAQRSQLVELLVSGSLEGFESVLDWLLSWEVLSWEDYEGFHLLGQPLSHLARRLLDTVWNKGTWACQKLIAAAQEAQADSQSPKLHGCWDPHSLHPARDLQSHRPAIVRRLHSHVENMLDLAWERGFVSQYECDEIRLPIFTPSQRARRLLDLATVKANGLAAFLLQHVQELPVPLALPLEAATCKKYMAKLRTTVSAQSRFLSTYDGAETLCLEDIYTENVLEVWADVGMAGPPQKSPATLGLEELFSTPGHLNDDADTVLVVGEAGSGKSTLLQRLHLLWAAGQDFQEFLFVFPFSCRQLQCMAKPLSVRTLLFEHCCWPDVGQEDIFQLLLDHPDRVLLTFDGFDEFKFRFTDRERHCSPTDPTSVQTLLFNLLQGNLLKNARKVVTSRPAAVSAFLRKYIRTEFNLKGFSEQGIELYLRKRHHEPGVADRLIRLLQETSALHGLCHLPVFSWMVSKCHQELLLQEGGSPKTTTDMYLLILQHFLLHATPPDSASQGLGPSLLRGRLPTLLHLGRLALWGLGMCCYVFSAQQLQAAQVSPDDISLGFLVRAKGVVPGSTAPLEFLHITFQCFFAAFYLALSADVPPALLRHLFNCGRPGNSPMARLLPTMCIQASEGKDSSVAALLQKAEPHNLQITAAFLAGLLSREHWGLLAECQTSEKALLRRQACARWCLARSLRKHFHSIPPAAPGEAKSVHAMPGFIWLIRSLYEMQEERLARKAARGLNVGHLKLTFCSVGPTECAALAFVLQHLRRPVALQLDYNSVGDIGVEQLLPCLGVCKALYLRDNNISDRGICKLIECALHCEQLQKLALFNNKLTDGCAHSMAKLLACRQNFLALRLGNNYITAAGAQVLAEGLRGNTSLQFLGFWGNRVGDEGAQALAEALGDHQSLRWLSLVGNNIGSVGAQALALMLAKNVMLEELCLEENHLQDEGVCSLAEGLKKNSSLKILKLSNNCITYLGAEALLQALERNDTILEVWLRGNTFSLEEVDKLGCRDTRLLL
Luciferin 4-monooxygenase, sequence (Q27757 whole entry): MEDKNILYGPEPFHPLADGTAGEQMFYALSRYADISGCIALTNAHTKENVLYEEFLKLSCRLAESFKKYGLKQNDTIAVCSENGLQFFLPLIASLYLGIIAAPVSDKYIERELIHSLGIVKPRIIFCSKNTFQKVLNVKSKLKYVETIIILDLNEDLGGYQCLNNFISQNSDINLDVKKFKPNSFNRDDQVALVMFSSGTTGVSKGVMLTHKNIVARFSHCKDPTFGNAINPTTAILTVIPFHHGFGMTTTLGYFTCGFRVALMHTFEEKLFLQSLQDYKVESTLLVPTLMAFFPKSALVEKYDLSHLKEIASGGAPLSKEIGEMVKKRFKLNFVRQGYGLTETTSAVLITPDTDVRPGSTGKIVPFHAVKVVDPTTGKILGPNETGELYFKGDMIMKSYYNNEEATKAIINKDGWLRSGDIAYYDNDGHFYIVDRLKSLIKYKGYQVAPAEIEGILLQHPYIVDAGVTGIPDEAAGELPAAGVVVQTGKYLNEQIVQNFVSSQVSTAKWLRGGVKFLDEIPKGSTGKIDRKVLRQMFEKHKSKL
Cytochrome P450 3A4, sequence (P08684 whole entry): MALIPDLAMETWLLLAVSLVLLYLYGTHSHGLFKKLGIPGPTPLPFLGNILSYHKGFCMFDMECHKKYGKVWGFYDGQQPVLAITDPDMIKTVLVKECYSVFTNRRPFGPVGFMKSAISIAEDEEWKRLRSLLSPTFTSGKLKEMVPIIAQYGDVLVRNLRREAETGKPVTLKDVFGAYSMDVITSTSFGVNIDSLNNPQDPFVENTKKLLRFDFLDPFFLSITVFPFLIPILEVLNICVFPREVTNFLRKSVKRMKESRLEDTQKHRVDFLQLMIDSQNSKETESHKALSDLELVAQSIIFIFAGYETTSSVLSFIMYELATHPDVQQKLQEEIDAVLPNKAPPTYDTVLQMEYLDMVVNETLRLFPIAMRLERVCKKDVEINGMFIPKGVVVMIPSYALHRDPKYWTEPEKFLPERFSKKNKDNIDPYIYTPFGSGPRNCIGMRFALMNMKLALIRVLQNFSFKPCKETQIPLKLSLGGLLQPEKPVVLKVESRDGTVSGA
Type-1 angiotensin II receptor, sequence (P30556 whole entry): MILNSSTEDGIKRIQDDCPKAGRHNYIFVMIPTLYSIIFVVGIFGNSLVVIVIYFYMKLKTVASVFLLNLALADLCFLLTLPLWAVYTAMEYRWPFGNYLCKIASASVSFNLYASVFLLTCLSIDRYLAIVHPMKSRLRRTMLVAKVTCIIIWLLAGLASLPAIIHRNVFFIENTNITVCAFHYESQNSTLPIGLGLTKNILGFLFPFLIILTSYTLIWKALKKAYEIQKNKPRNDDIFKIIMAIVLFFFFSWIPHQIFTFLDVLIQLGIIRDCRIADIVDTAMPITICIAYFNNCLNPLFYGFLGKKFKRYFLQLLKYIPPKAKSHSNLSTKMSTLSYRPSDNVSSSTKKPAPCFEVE
Beta-galactosidase, sequence (Q8VNN2 whole entry): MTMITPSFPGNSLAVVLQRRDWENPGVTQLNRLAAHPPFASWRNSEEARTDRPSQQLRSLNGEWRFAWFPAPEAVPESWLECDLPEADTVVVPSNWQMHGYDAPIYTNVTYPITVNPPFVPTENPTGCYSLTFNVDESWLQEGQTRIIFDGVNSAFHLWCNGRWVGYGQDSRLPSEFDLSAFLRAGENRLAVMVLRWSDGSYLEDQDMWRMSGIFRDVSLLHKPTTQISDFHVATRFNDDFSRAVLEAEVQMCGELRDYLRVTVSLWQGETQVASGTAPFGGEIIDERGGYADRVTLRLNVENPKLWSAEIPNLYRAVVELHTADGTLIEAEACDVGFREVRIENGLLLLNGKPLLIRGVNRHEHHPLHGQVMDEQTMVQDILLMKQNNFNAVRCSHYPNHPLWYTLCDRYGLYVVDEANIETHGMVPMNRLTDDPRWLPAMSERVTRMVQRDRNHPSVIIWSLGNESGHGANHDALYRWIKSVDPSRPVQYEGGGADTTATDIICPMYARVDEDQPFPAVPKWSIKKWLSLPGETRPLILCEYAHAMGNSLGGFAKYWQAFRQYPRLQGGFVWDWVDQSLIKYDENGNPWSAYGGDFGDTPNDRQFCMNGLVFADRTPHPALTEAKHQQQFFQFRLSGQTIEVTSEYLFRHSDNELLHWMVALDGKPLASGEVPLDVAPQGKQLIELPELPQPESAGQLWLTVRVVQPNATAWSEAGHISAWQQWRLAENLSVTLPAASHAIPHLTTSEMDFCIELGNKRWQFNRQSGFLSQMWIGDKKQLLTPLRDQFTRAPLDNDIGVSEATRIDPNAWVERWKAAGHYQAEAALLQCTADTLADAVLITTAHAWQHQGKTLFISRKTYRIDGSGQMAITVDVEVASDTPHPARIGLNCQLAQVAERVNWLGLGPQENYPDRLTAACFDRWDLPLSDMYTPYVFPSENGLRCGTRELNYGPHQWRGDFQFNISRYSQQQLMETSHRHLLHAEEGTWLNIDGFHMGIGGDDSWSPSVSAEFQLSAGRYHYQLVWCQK
Glutathione-S-transferase, sequence (Q26513 whole entry): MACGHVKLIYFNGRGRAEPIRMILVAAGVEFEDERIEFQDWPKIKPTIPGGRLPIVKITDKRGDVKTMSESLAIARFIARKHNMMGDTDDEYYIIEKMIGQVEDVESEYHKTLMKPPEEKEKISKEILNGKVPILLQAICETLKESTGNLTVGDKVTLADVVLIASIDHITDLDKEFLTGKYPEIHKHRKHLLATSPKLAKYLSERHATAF
FAD-linked sulfhydryl oxidase ALR, sequence (P55789 whole entry): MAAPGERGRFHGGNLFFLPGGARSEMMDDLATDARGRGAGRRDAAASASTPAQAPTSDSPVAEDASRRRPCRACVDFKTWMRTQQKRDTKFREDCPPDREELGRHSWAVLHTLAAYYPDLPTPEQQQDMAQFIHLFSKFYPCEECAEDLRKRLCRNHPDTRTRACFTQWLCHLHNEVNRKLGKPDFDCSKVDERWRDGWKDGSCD
Induced myeloid leukemia cell differentiation protein Mcl-1, sequence (Q07820 whole entry): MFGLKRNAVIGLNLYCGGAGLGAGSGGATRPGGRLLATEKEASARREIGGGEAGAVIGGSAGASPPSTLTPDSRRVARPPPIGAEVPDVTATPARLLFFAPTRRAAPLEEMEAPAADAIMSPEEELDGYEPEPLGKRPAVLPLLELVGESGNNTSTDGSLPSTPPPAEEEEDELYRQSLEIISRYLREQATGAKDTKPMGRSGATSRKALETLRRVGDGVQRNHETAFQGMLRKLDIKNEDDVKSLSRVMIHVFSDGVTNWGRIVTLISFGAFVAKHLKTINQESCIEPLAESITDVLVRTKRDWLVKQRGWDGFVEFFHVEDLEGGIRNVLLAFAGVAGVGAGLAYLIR

S=c1[nH]c2ccccc2n2c(=S)[nH]nc12
EC50 [1]: 10.3 µM (inconclusive) | EC50 [2]: 6.1 µM (active) | AC50 [3]: 2.35 µM (active) | AC50 [4]: 8 µM (active) | IC50 [5]: > 66 µM (inactive) | IC50 [6]: > 47.1 µM (inactive) | IC50 [7]: > 66 µM (inactive) | EC50 [8]: > 53 µM (inactive) | IC50 [9]: 56.5 µM (active) | IC50 (Major prion protein): > 1.7 µM (active)

CCOP(=S)(OCC)SCCSCC [DISULFOTON]
AC50 (Cytochrome P450 3A4): 20 µM (inconclusive) | AC50 [10]: 1 µM (inconclusive)

COc1ccc(S(=O)(=O)N(C)C[C@@H]2Oc3c(NC(=O)Nc4c(C)noc4C)cccc3C(=O)N([C@@H](C)CO)C[C@H]2C)cc1
AC50 (INS1): 28 µM (active)

N#CCCCC#Cc1ccc2c(c1)COc1c3ccccc3nn1-2
EC50 [11]: 10.1 µM (inconclusive) | AC50 [12]: 1.76 µM (active) | AC50 [13]: > 52 µM (inactive) | AC50 [14]: > 52 µM (inactive) | AC50 [15]: 6.24 µM (active) | AC50 [16]: 7.77 µM (active) | AC50 [17]: > 52 µM (inactive)

O=C(O)c1cccc2c1NC(C(=O)O)C1CC(Sc3ccccc3[N+](=O)[O-])C(Cl)C21 (centres undefined)
IC50 [18]: 2.17 µM (active) | AC50 (HeLa): 179 µM (active) | AC50 (ORF 73): 59.6 µM (active) | EC50 [19]: 19.4 µM (inactive) | IC50 (Genome polyprotein): 38.9 µM (active) | IC50 [20]: > 66.6 µM (inactive) | IC50 [21]: 5.21 µM (active) | IC50 [22]: > 100 µM (active)

Cc1cc(C(=O)NNc2ccc(C)c(C)c2)no1
EC50 (Beta-galactosidase): > 40 µM (inactive) | IC50 [23]: 8.58 µM (active)

COc1cc(NC(=O)c2cccs2)c(C(=O)OCC(=O)c2cc(C)n(-c3ccccc3)c2C)cc1OC
EC50 (HEK293 [24]): > 20 µM (inactive) | IC50 (HEK293 [25]): 1.19 µM (active) | IC50 (HEK293 [26]): > 20 µM (inactive) | EC50 [27]: 7.27 µM (active) | IC50 (HEK293 [28]): > 20 µM (inactive) | IC50 (HEK293 [29]): > 20 µM (inactive) | AC50 (H4): 2.17 µM (active) | AC50 [15]: 9.95 µM (active) | AC50 [16]: 3.07 µM (active)
